ChEMBL document CHEMBL1154514, “Synthesis and biological evaluation of N-mercaptoacylcysteine derivatives as leukotriene A4 hydrolase inhibitors” (Bioorg Med Chem Lett, 2009)

How the values were obtained:
[1] = target: T1, Leukotriene A-4 hydrolase (Cavia porcellus, UniProt P19602); experiment: Inhibition of LTA4 hydrolase in guinea pig lung assessed as inhibition of LTB4 production
T1 sequence (P19602 whole entry): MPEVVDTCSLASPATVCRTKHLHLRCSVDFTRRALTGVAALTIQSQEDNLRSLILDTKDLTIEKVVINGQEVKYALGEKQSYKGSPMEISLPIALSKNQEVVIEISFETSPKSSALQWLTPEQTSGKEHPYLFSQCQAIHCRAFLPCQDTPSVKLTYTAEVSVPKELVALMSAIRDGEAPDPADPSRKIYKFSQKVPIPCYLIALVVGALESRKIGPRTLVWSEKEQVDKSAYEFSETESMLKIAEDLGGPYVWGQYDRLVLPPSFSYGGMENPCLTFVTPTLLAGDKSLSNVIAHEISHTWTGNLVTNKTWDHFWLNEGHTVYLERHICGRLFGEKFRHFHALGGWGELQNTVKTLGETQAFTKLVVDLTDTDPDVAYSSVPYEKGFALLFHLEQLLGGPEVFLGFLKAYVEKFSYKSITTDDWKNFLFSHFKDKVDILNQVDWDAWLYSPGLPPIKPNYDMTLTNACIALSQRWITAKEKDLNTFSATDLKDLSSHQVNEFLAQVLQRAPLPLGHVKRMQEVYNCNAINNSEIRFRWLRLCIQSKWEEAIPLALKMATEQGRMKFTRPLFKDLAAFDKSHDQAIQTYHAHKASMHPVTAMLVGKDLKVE

[2] = target: Angiotensin-converting enzyme (Homo sapiens, UniProt P12821); experiment: Inhibition of angiotensin-converting enzyme in whole blood by HPLC; format: tissue-based
Collagenase 3 = Collagenase 3 (Homo sapiens, UniProt P45452); experiment: Inhibition of type 3 collagenase
[3] = target: Aminopeptidase N (Homo sapiens) (UniProt P15144); experiment: Inhibition of aminopeptidase M at 100 uM
[4] = target: T2, Interstitial collagenase (Homo sapiens) (UniProt P03956); experiment: Inhibition of type 1 collagenase at 100 uM
T2 sequence (whole entry): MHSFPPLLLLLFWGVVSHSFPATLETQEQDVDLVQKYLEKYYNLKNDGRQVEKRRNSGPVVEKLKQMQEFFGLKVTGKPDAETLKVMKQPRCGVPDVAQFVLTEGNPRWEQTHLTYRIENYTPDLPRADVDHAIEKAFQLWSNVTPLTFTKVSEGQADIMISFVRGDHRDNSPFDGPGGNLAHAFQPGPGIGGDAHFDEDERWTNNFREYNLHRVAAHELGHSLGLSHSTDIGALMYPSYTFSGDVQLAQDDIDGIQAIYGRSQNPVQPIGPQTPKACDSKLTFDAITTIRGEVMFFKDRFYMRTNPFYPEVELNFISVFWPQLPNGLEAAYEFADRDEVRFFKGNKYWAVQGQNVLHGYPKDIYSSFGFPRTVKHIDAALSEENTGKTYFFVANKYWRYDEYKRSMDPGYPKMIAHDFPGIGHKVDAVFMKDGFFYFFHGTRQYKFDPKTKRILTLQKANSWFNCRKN

[5] = target: Neprilysin (Homo sapiens) (UniProt P08473); experiment: Inhibition of endopeptidase 24.11 at 100 uM
[6] = target: T3, Endothelin-converting enzyme 1 (Homo sapiens) (UniProt P42892); experiment: Inhibition of endothelin-converting enzyme 1 at 100 uM
T3 sequence (whole entry): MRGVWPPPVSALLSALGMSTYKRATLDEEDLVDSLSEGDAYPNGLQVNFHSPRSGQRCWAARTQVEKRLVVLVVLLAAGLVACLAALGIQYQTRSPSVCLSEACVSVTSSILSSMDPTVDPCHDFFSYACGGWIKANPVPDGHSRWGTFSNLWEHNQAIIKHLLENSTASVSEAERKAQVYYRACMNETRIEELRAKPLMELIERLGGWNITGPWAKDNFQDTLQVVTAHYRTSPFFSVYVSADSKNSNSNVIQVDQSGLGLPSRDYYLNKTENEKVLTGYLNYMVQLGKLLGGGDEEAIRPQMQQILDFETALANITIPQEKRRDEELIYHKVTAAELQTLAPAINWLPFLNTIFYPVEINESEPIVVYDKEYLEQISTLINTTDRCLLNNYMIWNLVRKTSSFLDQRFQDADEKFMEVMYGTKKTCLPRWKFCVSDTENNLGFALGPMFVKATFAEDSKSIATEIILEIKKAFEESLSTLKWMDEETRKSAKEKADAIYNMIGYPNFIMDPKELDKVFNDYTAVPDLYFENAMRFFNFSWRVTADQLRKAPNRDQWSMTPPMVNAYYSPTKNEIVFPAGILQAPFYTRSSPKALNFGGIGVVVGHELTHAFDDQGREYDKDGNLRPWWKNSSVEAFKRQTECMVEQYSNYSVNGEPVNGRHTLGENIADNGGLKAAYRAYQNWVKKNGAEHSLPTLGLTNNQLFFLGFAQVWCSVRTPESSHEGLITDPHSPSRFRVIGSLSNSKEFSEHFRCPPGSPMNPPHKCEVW

Chain of Angiotensin-converting enzyme (P12821 whole entry): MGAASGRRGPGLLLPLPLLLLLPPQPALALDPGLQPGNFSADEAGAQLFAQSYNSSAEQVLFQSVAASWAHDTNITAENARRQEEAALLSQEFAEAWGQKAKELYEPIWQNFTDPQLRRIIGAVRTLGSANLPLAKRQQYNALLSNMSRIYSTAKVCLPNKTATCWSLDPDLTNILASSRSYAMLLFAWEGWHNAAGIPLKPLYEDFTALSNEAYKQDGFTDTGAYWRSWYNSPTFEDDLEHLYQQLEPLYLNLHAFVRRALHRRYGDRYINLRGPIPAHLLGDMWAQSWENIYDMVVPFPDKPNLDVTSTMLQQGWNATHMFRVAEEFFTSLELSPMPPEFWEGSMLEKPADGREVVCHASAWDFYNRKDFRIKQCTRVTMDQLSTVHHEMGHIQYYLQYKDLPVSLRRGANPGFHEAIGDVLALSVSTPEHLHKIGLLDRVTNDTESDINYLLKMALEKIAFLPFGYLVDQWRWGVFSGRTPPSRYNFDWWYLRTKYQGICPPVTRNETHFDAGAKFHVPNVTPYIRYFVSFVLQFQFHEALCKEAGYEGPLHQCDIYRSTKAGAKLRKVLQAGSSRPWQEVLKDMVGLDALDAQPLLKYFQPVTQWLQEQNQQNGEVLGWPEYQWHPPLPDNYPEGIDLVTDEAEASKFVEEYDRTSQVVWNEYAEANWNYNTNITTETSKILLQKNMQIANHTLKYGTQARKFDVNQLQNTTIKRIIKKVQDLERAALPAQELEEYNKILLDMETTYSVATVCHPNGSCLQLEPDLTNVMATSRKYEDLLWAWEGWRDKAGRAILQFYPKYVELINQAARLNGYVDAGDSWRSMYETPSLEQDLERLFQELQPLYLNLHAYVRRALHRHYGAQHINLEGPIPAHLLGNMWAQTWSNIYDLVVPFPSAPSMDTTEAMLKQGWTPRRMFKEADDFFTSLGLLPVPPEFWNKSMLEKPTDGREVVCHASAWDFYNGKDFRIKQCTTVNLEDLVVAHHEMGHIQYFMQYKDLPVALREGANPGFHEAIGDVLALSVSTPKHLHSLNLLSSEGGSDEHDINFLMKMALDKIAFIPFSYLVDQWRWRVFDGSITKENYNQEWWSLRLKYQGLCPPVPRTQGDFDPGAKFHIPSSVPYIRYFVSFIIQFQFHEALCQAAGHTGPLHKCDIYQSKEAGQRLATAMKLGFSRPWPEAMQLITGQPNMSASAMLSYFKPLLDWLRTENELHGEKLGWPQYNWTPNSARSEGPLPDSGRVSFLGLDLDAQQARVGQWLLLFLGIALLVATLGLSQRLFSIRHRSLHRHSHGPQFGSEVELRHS
Chain of Neprilysin (Homo sapiens) (P08473 whole entry): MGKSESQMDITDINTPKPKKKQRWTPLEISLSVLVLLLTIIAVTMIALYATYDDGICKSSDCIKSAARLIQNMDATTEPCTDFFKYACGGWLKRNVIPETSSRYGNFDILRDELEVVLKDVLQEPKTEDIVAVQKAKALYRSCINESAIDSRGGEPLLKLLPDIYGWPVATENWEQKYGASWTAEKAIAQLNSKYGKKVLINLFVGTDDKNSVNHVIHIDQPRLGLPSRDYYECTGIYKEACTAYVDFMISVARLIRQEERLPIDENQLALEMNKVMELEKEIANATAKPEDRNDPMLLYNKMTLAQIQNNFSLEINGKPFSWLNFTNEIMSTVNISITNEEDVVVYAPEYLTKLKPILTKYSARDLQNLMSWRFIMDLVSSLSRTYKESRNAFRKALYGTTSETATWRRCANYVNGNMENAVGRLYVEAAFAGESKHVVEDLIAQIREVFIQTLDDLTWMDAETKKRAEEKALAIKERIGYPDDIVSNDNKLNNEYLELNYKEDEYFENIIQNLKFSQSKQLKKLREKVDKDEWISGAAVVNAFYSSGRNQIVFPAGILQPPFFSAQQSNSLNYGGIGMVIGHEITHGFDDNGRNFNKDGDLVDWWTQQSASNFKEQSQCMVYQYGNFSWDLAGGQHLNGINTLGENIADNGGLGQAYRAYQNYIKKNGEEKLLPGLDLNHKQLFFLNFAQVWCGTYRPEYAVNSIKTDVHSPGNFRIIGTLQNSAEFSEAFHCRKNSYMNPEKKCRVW
Chain of Aminopeptidase N (Homo sapiens) (P15144 whole entry): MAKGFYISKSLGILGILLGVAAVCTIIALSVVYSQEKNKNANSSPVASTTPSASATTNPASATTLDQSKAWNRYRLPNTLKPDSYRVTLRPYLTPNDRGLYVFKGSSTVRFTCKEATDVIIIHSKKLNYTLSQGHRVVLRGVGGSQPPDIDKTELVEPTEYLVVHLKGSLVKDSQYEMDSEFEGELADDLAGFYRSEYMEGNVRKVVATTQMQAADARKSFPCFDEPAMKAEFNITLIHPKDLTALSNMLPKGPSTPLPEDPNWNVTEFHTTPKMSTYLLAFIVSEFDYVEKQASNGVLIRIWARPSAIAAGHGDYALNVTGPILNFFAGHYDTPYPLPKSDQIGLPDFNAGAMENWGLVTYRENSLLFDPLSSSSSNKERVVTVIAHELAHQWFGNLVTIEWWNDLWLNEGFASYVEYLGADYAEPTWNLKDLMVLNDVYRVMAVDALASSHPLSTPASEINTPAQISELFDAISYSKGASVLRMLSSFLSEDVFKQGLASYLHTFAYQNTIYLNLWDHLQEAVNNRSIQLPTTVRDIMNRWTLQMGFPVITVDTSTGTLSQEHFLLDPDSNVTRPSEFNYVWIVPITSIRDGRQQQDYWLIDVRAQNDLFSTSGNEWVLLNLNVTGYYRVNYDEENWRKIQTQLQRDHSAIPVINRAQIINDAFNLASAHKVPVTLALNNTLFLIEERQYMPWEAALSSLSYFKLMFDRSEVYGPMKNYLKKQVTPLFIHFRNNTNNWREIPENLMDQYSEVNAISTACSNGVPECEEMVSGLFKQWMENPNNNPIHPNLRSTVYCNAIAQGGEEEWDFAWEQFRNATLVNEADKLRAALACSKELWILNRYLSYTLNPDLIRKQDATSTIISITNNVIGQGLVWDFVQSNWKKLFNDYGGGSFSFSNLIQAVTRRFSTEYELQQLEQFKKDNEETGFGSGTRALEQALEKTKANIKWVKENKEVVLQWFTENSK

Row | SMILES | IC50 ([1]; read-out: IC50) [nM] | IC50 [2] [nM] | IC50 ([1]; read-out: pIC50 (converted)) [nM] | other results
1 | C[C@H](CS)C(=O)N[C@@H](CSCc1ccccc1)C(=O)O | > 10000 | 34 | – | –
2 | COc1ccc(CSC[C@H](NC(=O)[C@H](C)CS)C(=O)O)cc1 | 2400 | 100 | 2400 | –
3 | CCc1ccc(CSC[C@H](NC(=O)[C@H](C)CS)C(=O)O)cc1 | – | 21 | 280 | –
4 | C[C@H](CS)C(=O)N[C@@H](CSC(C)(C)c1ccc(C2CCCCC2)cc1)C(=O)O | – | 3000 | – | –
5 | C[C@H](CS)C(=O)N[C@@H](CCSCc1ccc(N(C)C)cc1)C(=O)O | > 10000 | – | – | –
6 | C[C@H](CS)C(=O)N[C@@H](CSCc1ccc(C2CCCCC2)cc1)C(=O)O | – | 4000 | 79 | –
7 | CC(C)c1ccc(C(SC[C@H](NC(=O)[C@H](C)CS)C(=O)O)c2ccccc2)cc1 (stereo partly drawn) | 91 | 1700 | – | –
8 | C[C@H](CS)C(=O)N[C@@H](CSCc1ccc(-c2ccccc2)cc1)C(=O)O | 600 | 280 | 79.4 | –
9 | C[C@H](CS)C(=O)N[C@@H](CSCc1ccc(Br)cc1)C(=O)O | 610 | 280 | 610 | –
10 | C[C@H](CS)C(=O)N[C@@H](CSCc1ccc(S(C)(=O)=O)cc1)C(=O)O | – | 300 | – | –
11 | CSc1ccc(CSC[C@H](NC(=O)[C@H](C)CS)C(=O)O)cc1 | – | 300 | – | –
12 | CCCCC(SC[C@H](NC(=O)[C@H](C)CS)C(=O)O)c1ccc(C(C)C)cc1 (stereo partly drawn) | 510 | 3600 | – | –
13 | C[C@H](CS)C(=O)N[C@@H](CSCc1ccc(C(C)(C)C)cc1)C(=O)O | – | 130 | 24 | –
14 | C[C@H](CS)C(=O)N[C@@H](CSCc1ccc(I)cc1)C(=O)O | – | 140 | 15 | –
15 | C[C@H](CS)C(=O)N[C@@H](CSC(c1ccccc1)c1ccc(C2CCCCC2)cc1)C(=O)O (stereo partly drawn) | 210 | > 10000 | – | –
16 | C[C@H](S)C(=O)N[C@@H](CSCc1ccc(N(C)C)cc1)C(=O)O | > 10000 | – | – | –
17 | C[C@H](CS)C(=O)N[C@H](CSCc1ccc(N(C)C)cc1)C(=O)O | > 10000 | – | – | –
18 | CN(C)c1ccc(CSC[C@H](NC(=O)CS)C(=O)O)cc1 | 470 | – | – | –
19 | C[C@H](CS)C(=O)N[C@@H](CSCc1cccc(N(C)C)c1)C(=O)O | > 10000 | – | – | –
20 | CN(C)c1ccc(CSC[C@H](NC(=O)CCCS)C(=O)O)cc1 | > 10000 | – | – | –
21 | C[C@H](CS)C(=O)N[C@@H](CSCc1ccc(Cl)cc1)C(=O)O | 1700 | 250 | 1700 | –

Row | SMILES | IC50 ([1]; read-out: IC50) [nM] | IC50 [2] [nM] | IC50 ([1]; read-out: pIC50 (converted)) [nM] | other results
22 | CC(C)c1ccc(C(SC[C@H](NC(=O)[C@H](C)CS)C(=O)O)C(C)C)cc1 (stereo partly drawn) | 520 | 430 | – | –
23 | C[C@H](CS)C(=O)N[C@@H](CSCc1ccc(Oc2ccccc2)cc1)C(=O)O | 1700 | 370 | 1700 | –
24 | CCCC(SC[C@H](NC(=O)[C@H](C)CS)C(=O)O)c1ccc(C(C)C)cc1 (stereo partly drawn) | 180 | 420 | – | –
25 | C[C@H](CS)C(=O)N[C@@H](CSCc1ccc(C(F)(F)F)cc1)C(=O)O | – | 340 | 140 | –
26 | CCCc1ccc(CSC[C@H](NC(=O)[C@H](C)CS)C(=O)O)cc1 | – | 210 | 72 | –
27 | CC(S)CC(=O)N[C@@H](CSCc1ccc(N(C)C)cc1)C(=O)O (stereo partly drawn) | 7400 | – | – | –
28 | C[C@H](CS)C(=O)N[C@@H](CSCc1ccc(OC(F)(F)F)cc1)C(=O)O | 400 | 260 | – | –
29 | C[C@H](CS)C(=O)N[C@@H](CSCc1ccc(N(C)C)cc1)C(=O)O | 270 | 520 | 270 | IC50 (Collagenase 3): Not Active; inhibition [3]: 42%; inhibition [4]: 3%; inhibition [5]: 16%; inhibition [6]: 8%
30 | CC(C)c1ccc(CSC[C@H](NC(=O)[C@H](C)CS)C(=O)O)cc1 | – | 300 | 200 | –
31 | CC(C)c1ccc(C(C)SC[C@H](NC(=O)[C@H](C)CS)C(=O)O)cc1 (stereo partly drawn) | – | 200 | – | –
32 | CN(C)c1ccc(CSC[C@H](NC(=O)CCS)C(=O)O)cc1 | > 10000 | – | – | –
33 | C[C@@H](S)C(=O)N[C@@H](CSCc1ccc(N(C)C)cc1)C(=O)O | > 10000 | – | – | –
34 | CC(C)c1ccc(C(C)(C)SC[C@H](NC(=O)[C@H](C)CS)C(=O)O)cc1 | 79 | 260 | – | –
35 | CCOc1ccc(CSC[C@H](NC(=O)[C@H](C)CS)C(=O)O)cc1 | 640 | 340 | 640 | –
36 | C[C@H](CS)C(=O)N[C@@H](CSCc1ccc(F)cc1)C(=O)O | > 10000 | 100 | > 10000 | –
37 | C[C@H](CS)C(=O)N[C@@H](CSCc1ccc([N+](=O)[O-])cc1)C(=O)O | 4900 | 320 | – | –
38 | CC(C)c1ccc(CSC(C)(C)[C@H](NC(=O)[C@H](C)CS)C(=O)O)cc1 | > 10000 | > 10000 | – | –
39 | Cc1ccc(CSC[C@H](NC(=O)[C@H](C)CS)C(=O)O)cc1 | 7200 | 240 | 7200 | –
40 | C[C@H](CS)C(=O)N[C@@H](CSCc1ccc(C#N)cc1)C(=O)O | 530 | 300 | – | –
41 | CCN(CC)c1ccc(CSC[C@H](NC(=O)[C@H](C)CS)C(=O)O)cc1 | – | 4600 | – | –
42 | CCC(SC[C@H](NC(=O)[C@H](C)CS)C(=O)O)c1ccc(C(C)C)cc1 (stereo partly drawn) | – | 340 | – | –
